Assay results from ChEMBL document CHEMBL3301550, “MMV Mararia Box screening against P. falciparum asexual stage parasites under hypoxia and bicarbonate modified culture conditions”.

Experiments:
Format in all cases: functional, organism-based
Details in all cases: 3D7
Plasmodium falciparum [1] = assay: MMV: 3H-Hyoxanthine uptake assay; 5% O2, 5% CO2 in N2.
Plasmodium falciparum [2] = assay: MMV: Modified 3H-Hyoxanthine uptake assay; RPMI 1640 (Invitrogen cat#23400-013) without Sodium Bicarbonate (NaHCO3).
Plasmodium falciparum [3] = assay: MMV: 3H-Hyoxanthine uptake assay; RPMI 1640 (Invitrogen cat#11875-093) with Sodium Bicarbonate (NaHCO3) […].
Plasmodium falciparum [4] = assay: MMV: Modified 3H-Hyoxanthine uptake assay; 1% O2, 5% CO2 in N2.

SMILES | IC50 (Plasmodium falciparum [1]) | IC50 (Plasmodium falciparum [2]) | IC50 (Plasmodium falciparum [3]) | IC50 (Plasmodium falciparum [4])
CCN1CCCC1CNc1[nH]cnc2c3cc(Cl)ccc3nc1-2 (configuration not stated) | > 1000 nM | > 1000 nM | > 1000 nM | > 1000 nM
Cc1ccc(-c2cc3c(nn2)-c2ccccc2C3=O)cc1 | > 500 nM | > 500 nM | > 500 nM | > 500 nM
COc1ccc(NC(=O)C2c3ccccc3C(=O)N(CC(C)C)C2c2cccs2)cc1 (configuration not stated) | 343 nM | 370 nM | 262 nM | 211 nM
Cc1cc(C)cc(Nc2cc(C)nc3nc(C(F)(F)F)nn23)c1 | 81 nM | 132 nM | 59 nM | 47 nM
CCN(CC)CCNc1ncnc2c1[nH]c1ccc(Cl)cc12 | 314 nM | 851 nM | 326 nM | 266 nM
Cc1cc(NCCN2CCCCC2)c2ccc3ccccc3c2n1 | 489 nM | 219 nM | 127 nM | 132 nM
CNCCCNc1ccnc2cc(Cl)ccc12 | 44 nM | 155 nM | 40 nM | 23 nM
COc1ccc(C2=C(c3ccc(OC)cc3)C3(c4ccccc4)C(=O)C2(c2ccccc2)C2C(=O)N(c4ccc(C)cc4)C(=O)C23)cc1 (configuration not stated) | > 1000 nM | > 1000 nM | > 1000 nM | > 1000 nM
CCOC(=O)c1cnc2c(C)cc(C)cc2c1Nc1ccc(OC)c(OC)c1 | > 1000 nM | > 2000 nM | > 2000 nM | > 1000 nM
Cc1cc(NC(=O)C2c3ccccc3C(=O)N(CC(C)C)C2c2cccs2)no1 (configuration not stated) | 300 nM | 385 nM | 213 nM | 183 nM
COc1ccc(-c2nc3cc(Cc4ccc5[nH]c(-c6ccc(OC)cc6)nc5c4)ccc3[nH]2)cc1 | > 1000 nM | > 1000 nM | > 1000 nM | > 1000 nM
COc1ccc(C(=O)Nc2nonc2-c2ccc(OC)c(OC)c2)cc1Cl | > 1000 nM | > 1000 nM | > 1000 nM | > 1000 nM
Cc1cc(C)c2c(c1)OCN(Cc1ccccc1Cl)C2 |  | 362 nM | 276 nM | 
CCCc1cc(O)c2c3c(c(=O)oc2c1)CN(C)CC3 | > 1000 nM |  |  | > 1000 nM
CCOC(=O)C1=C(c2ccccc2)N=c2sc(=Cc3cc(C)n(-c4ccc(F)cc4)c3C)c(=O)n2C1c1cccc(OC)c1OC (configuration not stated) | > 1000 nM | > 1000 nM | > 1000 nM | > 1000 nM
Fc1ccc2[nH]c3c(NCCCN4CCOCC4)ncnc3c2c1 | > 1000 nM | > 1000 nM | > 1000 nM | > 1000 nM
CSC1=NC(=Nc2c(C)cccc2C)C2(CCC(C(C)(C)C)CC2)N1c1ccc(Cl)cc1 (configuration not stated) | > 1000 nM | > 1000 nM | > 1000 nM | > 1000 nM
CC1CN(C(=O)c2sc3ccccc3c2Cl)CC(C)O1 (configuration not stated) | 79 nM | 71 nM | 73 nM | 100 nM
COc1ccccc1CNC(=O)CCn1c(=O)[nH]c2ccsc2c1=O |  | 432 nM | 367 nM | 
CCC(c1ccccc1)c1nn2c(-c3cccs3)nnc2s1 (configuration not stated) | 415 nM | 181 nM | 150 nM | 66 nM
COc1ccc(-c2c(C)nn3c(N)c(C#N)cnc23)cc1OC |  | 457 nM | 330 nM | 
Oc1ccccc1CNCC12CC3CC(CC(C3)C1)C2 | 136 nM | 121 nM | 104 nM | 63 nM

SMILES | IC50 (Plasmodium falciparum [1]) | IC50 (Plasmodium falciparum [2]) | IC50 (Plasmodium falciparum [3]) | IC50 (Plasmodium falciparum [4])
C=CC12CCN(CC1)C(C(O)c1ccnc3ccc(OC)cc13)C2 (configuration not stated) |  | 40 nM | 21 nM | 
CCOC(=O)c1c(C)n(-c2ccc(Cl)cc2)c2ccc(OC(=O)C=Cc3ccccc3)cc12 | > 1000 nM | > 1000 nM | > 1000 nM | > 1000 nM
c1ccc(Cn2c(N=Nc3c(Nc4ccccc4)ccc4ccccc34)nc3ccccc32)cc1 | > 500 nM | 64 nM | 125 nM | > 500 nM
CCCN(CCC)CC(O)COc1ccccc1C(=O)Nc1ccccc1 (configuration not stated) | 281 nM | 347 nM | 315 nM | 169 nM
Cc1ccc(-c2cc3nc4c(c(O)n3n2)CCCC4)cc1 | > 1000 nM | 1260 nM | 889 nM | > 1000 nM
COc1ccc(C(C)=O)cc1N1C(=O)C2C(C1=O)C1(c3ccccc3)C(=O)C2(c2ccccc2)C(c2ccc(C)cc2)=C1c1ccc(C)cc1 (configuration not stated) | > 1000 nM | > 1000 nM | > 1000 nM | > 1000 nM
CCCCCCOC(=O)C1=C(C)NC(=O)NC1c1ccccc1F (configuration not stated) | > 1000 nM | > 1000 nM | > 1000 nM | > 1000 nM
CN(C)c1ccc(C=Cc2nc(=O)c3ccccc3o2)cc1 | > 500 nM | 295 nM | 366 nM | > 500 nM
COc1cc(OC)c(N(C)C(=O)c2cc3c(s2)-c2ccccc2S(=O)(=O)C3)cc1Cl | > 500 nM | > 500 nM | > 500 nM | > 500 nM
CCN1CCN(Cc2ccc(NC(=O)c3cc4ccc5cccnc5c4[nH]3)cc2)CC1 | 422 nM | 674 nM | 582 nM | 497 nM
COc1ccc(-c2nc(NC(=O)CS(=O)(=O)c3ccc(F)cc3)sc2C)cc1 |  | 464 nM | 192 nM | 
CCOc1cc2c(cc1OCC)C(c1cc(OC)c(O)cc1Cl)NCC2 (configuration not stated) | 374 nM | 982 nM | 746 nM | 568 nM
CCC1(C)CC(CCNCc2ccccc2O)(c2ccc(C)cc2)CCO1 (configuration not stated) | 540 nM | 277 nM | 266 nM | 236 nM
CCCCCC(=O)N1c2ccccc2N=C2CC(c3ccc(OC)c(OC)c3)CC(O)=C2C1c1ccc(C(F)(F)F)cc1 (configuration not stated) |  | 144 nM | 129 nM | 
O=C(O)C1Cc2c([nH]c3ccccc23)C(c2ccc(Cl)cc2Cl)N1 (configuration not stated) | > 1000 nM | > 1000 nM | > 1000 nM | > 1000 nM
COc1ccc(C=C2SC(=N)N(c3ccccc3OC)C2=O)cc1 | 531 nM | 167 nM |  | 
Cc1cccc(Nc2nc(N)c3ccccc3n2)c1 | 299 nM | 332 nM | 283 nM | 230 nM
COc1cccc(NC(=O)[C@H](C(C)C)n2c(=O)[nH]c3ccccc3c2=O)c1 | 213 nM | 349 nM | 199 nM | 156 nM
CN1CCN(c2ccc(Nc3c4ccccc4nc4ccccc34)cc2)CC1 | 117 nM | 269 nM | 98 nM | 76 nM
COc1ccc2c(c1)OC(O)(C(F)(F)C(F)(F)F)CC2=O (configuration not stated) | 443 nM | 204 nM | 246 nM | 702 nM
Cc1ccc(Nc2nc(-c3ccccn3)cs2)cc1 | > 1000 nM | > 1000 nM | > 1000 nM | > 1000 nM
CCN(CC)CCNc1ccnc2cc(Cl)ccc12 | 40 nM | 94 nM | 46 nM | 18 nM

SMILES | IC50 (Plasmodium falciparum [1]) | IC50 (Plasmodium falciparum [2]) | IC50 (Plasmodium falciparum [3]) | IC50 (Plasmodium falciparum [4])
CCc1ccc(Nc2cc(C)c3ccc(O)cc3n2)cc1 | 165 nM | 127 nM | 171 nM | 150 nM
c1ccc2cc3c(Nc4ccc(N5CCOCC5)cc4)ccnc3cc2c1 | > 1000 nM | > 1000 nM | 1440 nM | > 1000 nM
COc1ccc2c(=O)cc(C(Cl)(Cl)Cl)oc2c1 | > 1000 nM | 789 nM | 942 nM | > 1000 nM
CCCc1c(CC)c(=N)c2ccccc2n1C | 397 nM | 355 nM | 211 nM | 65 nM
CCOC(=O)c1c(NC(=O)c2ccccc2)sc2c(O)c(CN(CC)CC)ccc12 | > 1000 nM |  |  | > 1000 nM
CN(C)CCCNc1c2ccccc2nc2ccccc12 | 360 nM | 594 nM | 190 nM | 59 nM
CCOC(=O)c1cnc2ccc(CC)cc2c1O | > 1000 nM | 408 nM | 301 nM | > 1000 nM
Cc1cc(Nc2ccc(Cl)cc2)n2nc(C(F)(F)F)nc2n1 | 349 nM | 169 nM | 112 nM | 70 nM
Cc1cc(C=C2SC(=Nc3ccccc3)N(C3CCCC3)C2=O)c(C)n1-c1ccc(Cl)cc1 | > 1000 nM | > 1000 nM | > 1000 nM | > 1000 nM
CCOC(=O)c1cn(CC)c2cc(N(C)CCc3ccc(OC)c(OC)c3)c(F)cc2c1=O | 345 nM |  |  | 85 nM
Cc1ccc(-c2cc3c(SCC(=O)Nc4cc(C(F)(F)F)ccc4Cl)nccn3n2)cc1 | > 500 nM | > 500 nM | > 500 nM | > 500 nM
Cc1ccc(Nc2nc(NCCO)c3ccccc3n2)cc1C | 238 nM | 325 nM | 186 nM | 219 nM
COc1ccc(Br)cc1C1Nc2ccc3ccccc3c2C2=C1C(=O)CC(c1ccccc1)C2 (configuration not stated) | > 1000 nM | 710 nM | 783 nM | > 1000 nM
COc1cccc(C=Cc2nc(=O)c3ccccc3o2)c1OC | > 500 nM | > 500 nM | > 500 nM | > 500 nM
COc1ccc(-n2ccnc2SCC(=O)Nc2cc(C)ccc2C)c(OC)c1 | 793 nM | > 1000 nM | > 1000 nM | 431 nM
CCc1c(C)c(=N)c2ccccc2n1C | 324 nM | 784 nM | 425 nM | 338 nM
Cc1ccc(N2C3c4ccccc4N(S(=O)(=O)c4ccc(C)cc4)C2c2ccccc2N3S(=O)(=O)c2ccc(C)cc2)cc1 | > 500 nM | > 500 nM | > 500 nM | > 500 nM
O=C(NCC(c1ccsc1)N1CCCCCC1)c1ccc(C(F)(F)F)cc1 (configuration not stated) |  | 1120 nM | 425 nM | 
Cc1ccc(N2C(=O)C3C(C2=O)C2(c4ccccc4)C(=O)C3(c3ccccc3)C(c3ccccc3)=C2c2ccccc2)cc1 (configuration not stated) | > 1000 nM | > 1000 nM | > 1000 nM | > 1000 nM
CCn1c(CN2CCN(Cc3ccccc3)CC2)nc2cc(NC(=O)c3cccs3)ccc21 |  | 186 nM | 174 nM | 
